Measurements taken from ChEMBL document CHEMBL1149861, “Inhibition of 15-lipoxygenase-catalysed oxygenation of arachidonic acid by substituted benzoic acids” (Bioorg Med Chem, 2008).

The molecules below were run on Glycine max (assay: Inhibition of soybean 15-lipoxygenase).
`O=C(O)c1ccc(O)c(O)c1` gave an inhibition of 73.3%. `O=C(O)c1cccc(O)c1` gave an inhibition of 46%. `O=C(O)c1cc(O)cc(O)c1` gave an inhibition of 58.1%. In the case of `O=C(O)c1cccc(O)c1O`, the inhibition is reported as 47%. For `COc1cc(C(=O)O)ccc1O`, the inhibition was 45.4%. `O=C(O)c1cc(O)c(O)c(O)c1` gave an inhibition of 60.5%. Work on `O=C(O)c1ccccc1` yielded an inhibition of 51.6%. With `O=C(O)c1ccc(O)cc1O` the inhibition was 47.7%. In the case of `O=C(O)c1c(O)cccc1O`, the inhibition is reported as 21.2%. `O=C(O)c1ccc(O)cc1` gave an inhibition of 47.6%. Molecule `O=C(O)/C=C/c1ccc(O)c(O)c1` has an inhibition of 36.2%. In the case of `O=C(O)c1cc(O)ccc1O`, the inhibition is reported as 49.9%. In the case of `O=C(O)c1ccccc1O`, the inhibition is reported as 48.4%.
